# Key:
# [1] = tested on: ERK1 phosphorylation of its substrate RSK in HT29 cells; assay: pRSK MSD Assay in HT29 cells; assay type: cell-based; conditions: Homo sapiens, HT-29, HT29 cells; read-out: ERK1 PRSK MSD HT29 EC50
# Procedure, shortened: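 HT29 cells were serum-starved overnight in 0.1% FBS, then treated with compound for 120 min at 37 °C. Lysates were assayed on MSD plates with RSK capture and phospho-RSK detection antibodies using electrochemiluminescence read-out.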
# [2] = biological target: T1, Erk1 (Homo sapiens (Human), UniProt P27361); assay: Protein Mass Modification Assay (intact protein MALDI); assay type: binding
# Procedure, shortened: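 Human Erk1 was incubated 60 min at room temperature with a 10-fold molar excess of compound, then analysed as intact protein by MALDI with sinapinic acid matrix. The centroid mass shift versus untreated protein was divided by compound molecular weight to give percent modified protein.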
# Target sequence in this assay (P27361 whole entry, looked up): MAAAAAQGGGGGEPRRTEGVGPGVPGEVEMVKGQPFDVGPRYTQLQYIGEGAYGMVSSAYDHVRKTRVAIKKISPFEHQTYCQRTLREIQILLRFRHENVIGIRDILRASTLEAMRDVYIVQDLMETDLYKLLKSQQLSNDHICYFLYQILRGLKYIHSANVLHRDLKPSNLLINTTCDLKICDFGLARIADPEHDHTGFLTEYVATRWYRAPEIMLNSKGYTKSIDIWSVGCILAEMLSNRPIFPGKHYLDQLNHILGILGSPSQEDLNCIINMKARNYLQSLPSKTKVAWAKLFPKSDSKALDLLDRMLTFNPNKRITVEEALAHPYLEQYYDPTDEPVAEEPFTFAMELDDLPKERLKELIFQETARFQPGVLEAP
# [3] = biological target: MEK1 activated ERK1 (Homo sapiens (Human), UniProt P27361); assay: Omnia continuous-read kinase assay for potency against MEK1 activated ERK1; assay type: biochemical; conditions: MEK1 activated ERK1, WT, ATP at KM
# Sequence of MEK1 activated ERK1 (P27361 whole entry): as the sequence (P27361 whole entry, looked up) above
# Procedure, shortened: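 Apparent IC50 came from initial reaction slopes (RFU vs time) plotted against log inhibitor with a variable-slope fit. Reactions were started with ERK1 (4 nM final) added to 50 μM ATP, roughly at its appKM, and 10 μM Sox-conjugated ST17 peptide in 20 mM Tris pH 7.5, 5 mM MgCl2. Fluorescence was monitored every 71 seconds.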
# [4] = tested on: p-RSK (ERK activity) in cells after compound washout; assay: Measurement of duration of action of test compounds (pRSK after washout); assay type: cell-based; conditions: 6 hr after compound washout
# Description: The protocol below describes an assay to measure the kinase activity of ERK1 to phosphorylate its substrate, RSK, in the presence of a test compound. This experiment was conducted using a Mesoscale Discovery plate. The day before the assay, HT29 cells were split and plated at 50,000 cells/well in complete growth media. After allowing cells to adhere, the media was removed and replaced with media containing 0.1% FBS and incubated overnight. Blank MDS plates were coated with 25 μl/well RSK capture antibody and incubated at 4° C. overnight. The next day, the media was removed and replaced with 100 μl of media containing a test compound and incubated for 120 minutes at 37° C. The media was removed and replaced with 55 μl of well lysis buffer with protease and phosphatase inhibitors provided in the kit, followed by incubation at 4° C. for 30 minutes. 50 μl of lysate was transferred to a blocked MSD plate, followed by incubation at room temperature for 2 hours under constant shaking. The plate was washed 3 times with MSD wash buffer (cat#R617TX), and 25 μl/well phospho-RSK (pRSK) detection antibody was added with an appropriate Sulfo-tagged anti-species detection antibody diluted in 1% BSA in MSD wash buffer. This mixture was incubated for 1 hour at room temperature under constant shaking. The plate was washed 3 times, and 150 μl 1×MSD read buffer was added, followed by signal detection in an MSD plate reader.
# Measurement of Duration of Action of Test Compounds
# One day before the assay, the cells were split and added at 50,000 cells per well in flat-bottom 96 well plate in 200 μl of growth media. The next day, the medium was discarded, 100 μl medium containing test compounds was added, and the plate was incubated at 37° C. for 120 minutes. The medium was discarded, and the cells were rinsed 3 times with PBS followed by addition of 200 μl of fresh grow medium. The plate was returned to a 37° C. incubator, and separate cell lysates were made using MSD lysis buffer after 0.25, 0.5, 1, 2, 4, 6, 8 and 18 or 24 hours. Thereafter, pRSK was measured as described above in the section entitled pRSK MSD Assay. The data is presented in Table A under the column titled “p-RSK inhibition at 6 hr (%).”
# [5] = biological target: T1, Erk1; assay: Measurement of Erk occupancy with biotinylated covalent probe I-299; assay type: cell-based; conditions: HT-29 cells
# Description: Measurement of Erk Occupancy with Biotinylated Covalent Probe
# This experiment measured occupancy of the ERK1 target by compounds according to the invention. This experiment was conducted using the Mesoscale Discovery test kit (Cat. #N45107B). One day before the assay, cells were split and added at 50,000 cells per well to a flat-bottom 96 well plate in 200 μl of growth medium. The next day, the medium was discarded, 100 μl medium containing test compound was added, and the plate was incubated at 37° C. for 120 minutes. The plate was rinsed once with PBS, and 50 μl lysis buffer with test compound was added. The plate was incubated at 4° C. for 30 min, and 30 μl of lysate was transferred to a plate to capture total and phosphor-Erk. Biotinylated probe I-299 was diluted in lysis buffer and added to each well to a final concentration of 0.2 μM. The plate was incubated for 2 hr under constant shaking at room temperature. The plate was washed 3 times with MSD wash buffer. To detect the biotinylated probe bonding, tagged streptavidin was added (MSD, Cat#R32AD-1) at 1 μg/ml, 25 μl/well, followed by a 60 min incubation under shaking. The plate was washed 3 times, 150 μl MSD Read Buffer (Cat#R61TX) was added and the plate was read in a plate reader manufactured by MSD. Percent occupancy by test compound at Erk was calculated by comparing the chemiluminescence readings from treated cells as compared to the chemiluminescence readings in untreated controls (which are defined as 100% probe bonding or 0% occupancy). The amount of covalent probe signal divided by the amount of ERK signal for samples with no test compound treatment represents the maximum probe signal (MPS). In samples treated with test compound prior to covalent probe, the ratio of probe signal to ERK signal (the test probe signal, TPS) was reduced by the degree of target occupancy by the test compound which blocks covalent probe binding. The difference between the MPS and the TPS, divided by the MPS gave the target occupancy by the test compound. This ratio was then expressed as a percent occupancy. Results from this assay are provided in Table A below under the column “Occupancy EC50 (nM) HT-29.”
# Target sequence in this assay (P27361 2-379 limits assumed): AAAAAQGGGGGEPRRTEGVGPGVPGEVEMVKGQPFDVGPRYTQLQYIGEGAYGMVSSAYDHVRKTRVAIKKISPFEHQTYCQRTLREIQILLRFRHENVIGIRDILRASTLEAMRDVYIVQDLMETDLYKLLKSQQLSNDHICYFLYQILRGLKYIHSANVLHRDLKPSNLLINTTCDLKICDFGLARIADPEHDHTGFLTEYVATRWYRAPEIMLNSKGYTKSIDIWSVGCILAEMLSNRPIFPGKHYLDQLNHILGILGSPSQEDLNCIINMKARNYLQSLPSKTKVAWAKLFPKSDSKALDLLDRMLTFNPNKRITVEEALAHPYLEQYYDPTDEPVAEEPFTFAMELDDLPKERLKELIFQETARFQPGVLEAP
EC50 [1] [nM],ERK1 Mass Mod (%) [2],IC50 [3] [nM],EC50 [5] [nM],Structure (SMILES),p-RSK inhibition at 6 hr (%) [4]
< 100,E (provided a mass modification of ≧70%),< 100,,"C=CC(=O)Nc1ccccc1Nc1nc(N[C@H]2CCCN(C(=O)CO)C2)ncc1C(F)(F)F [Compound I-15, (S)—N-(2-((2-((1-(2-hydroxyacetyl)piperidin-3-yl)amino)-5-(trifluoromethyl)pyrimidin-4-yl)amino)phenyl)acrylamide]",E (provided a p-RSK inhibition percent of ≧70%)
,E (provided a mass modification of ≧70%),< 100,< 100,"C=CC(=O)Nc1ccccc1Nc1nc(Nc2cc(C(N)=O)ccc2C)ncc1C(F)(F)F [Compound I-68, 3-(4-(2-Acrylamidophenylamino)-5-(trifluoromethyl)pyrimidin-2-ylamino)-4-methylbenzamide]",E (provided a p-RSK inhibition percent of ≧70%)
,E (provided a mass modification of ≧70%),,,"C=CC(=O)Nc1cc(C)ccc1Nc1nc(Nc2cc(C(N)=O)ccc2C)ncc1C(F)(F)F [Compound I-79, 3-((4-((2-Acrylamido-4-methylphenyl)amino)-5-(trifluoromethyl)pyrimidin-2-yl)amino)-4-methylbenzamide]",E (provided a p-RSK inhibition percent of ≧70%)
,G (proived a mass modification ≦30%),101 to 500,,"C=CC(=O)Nc1ccccc1Nc1nc(Nc2cc(OC)ncc2C)ncc1C(F)(F)F [Compound I-85, N-(2-((2-((2-Methoxy-5-methylpyridin-4-yl)amino)-5-(trifluoromethyl)pyrimidin-4-yl)amino)phenyl)acrylamide]",E (provided a p-RSK inhibition percent of ≧70%)
,,< 100,,"C=CC(=O)Nc1ccccc1Nc1nc(Nc2cncc(OC)c2)ncc1C(F)(F)F [Compound I-86, N-(2-((2-((5-Methoxypyridin-3-yl)amino)-5-(trifluoromethyl)pyrimidin-4-yl)amino)phenyl)acrylamide]",E (provided a p-RSK inhibition percent of ≧70%)
,E (provided a mass modification of ≧70%),< 100,,"C=CC(=O)Nc1cc(C)ccc1Nc1nc(N[C@H]2CCCN(C(=O)CO)C2)ncc1Cl [Compound I-140, (S)—N-(2-((5-chloro-2-((1-(2-hydroxyacetyl)piperidin-3-yl)amino)pyrimidin-4-yl)amino)-5-methylphenyl)acrylamide]",F (provided a p-RSK inhibition percent of 31-69%)
,E (provided a mass modification of ≧70%),< 100,,"C=CC(=O)Nc1cc(C)ccc1Nc1nc(Nc2cc(C(N)=O)ccc2C)ncc1Cl [Compound I-229, 3-((4-((2-acrylamido-4-methylphenyl)amino)-5-chloropyrimidin-2-yl)amino)-4-methylbenzamide]",E (provided a p-RSK inhibition percent of ≧70%)
,E (provided a mass modification of ≧70%),< 100,,"C=CC(=O)Nc1ccccc1Nc1nc(Nc2cc(OC)ncc2C)ncc1Cl [Compound I-240, N-(2-((5-chloro-2-((2-methoxy-5-methylpyridin-4-yl)amino)pyrimidin-4-yl)amino)phenyl)acrylamide]",E (provided a p-RSK inhibition percent of ≧70%)
,E (provided a mass modification of ≧70%),< 100,,"C=CC(=O)Nc1cc(C)ccc1Nc1nc(Nc2cc(OC)ncc2C)ncc1Cl [Compound I-241, N-(2-((5-chloro-2-((2-methoxy-5-methylpyridin-4-yl)amino)pyrimidin-4-yl)amino)-5-methylphenyl)acrylamide]",E (provided a p-RSK inhibition percent of ≧70%)
,E (provided a mass modification of ≧70%),< 100,,"C=CC(=O)Nc1cc(OC)ccc1Nc1nc(Nc2cc(OC)ncc2C)ncc1Cl [Compound I-242, N-(2-((5-chloro-2-((2-methoxy-5-methylpyridin-4-yl)amino)pyrimidin-4-yl)amino)-5-methoxyphenyl)acrylamide]",E (provided a p-RSK inhibition percent of ≧70%)
